According to patent EP0603240B1, “SAFENING HERBICIDAL PYRAZOLYLSULFONYLUREAS” (priority 1991, dated 1993):

Legend:
[1] = tested on: barnyardgrass (Echinochloa crusgalli); experiment: Example 9, Procedure II: Herbicide No. 1 + pretilachlor (No. 13) with antidotes; type: in vivo
Description: (§1) Containers were filled and compacted with a fumigated silt loam top soil to a depth of about 1.3 cm from the top of the container. A first container was designated as an untreated control, a second container was designated as a herbicide control, and a third container was designated as a herbicide + antidote test container. Each of the containers was seeded with a crop species. A measured amount of herbicide dispersed or dissolved in acetone was applied to a measured quantity of soil. To this same quantity of soil treated with herbicide, there was added a measured amount of antidote dispersed or dissolved in acetone. The quantity of soil treated with the herbicide and antidote was thoroughly mixed to incorporate the herbicide and antidote in the soil uniformly. The seed bed in the third container of soil was covered with the soil treated with the herbicide and antidote and the container was leveled. For each test series, the seed beds of the first and second containers were likewise covered by soil layers. the cover layer of the first container was not treated with herbicide or antidote.
(§2) The containers were then placed on a bench in a greenhouse and sub-irrigated as required for the duration of the test. […] Plant response is measured in terms of percent injury. Antidote efficacy is indicated as the difference in plant injury by the herbicide(s) without the antidote and with the antidote.
(§3) This procedure is the same as Procedure I, but modified in the manner that after incorporation of the chemicals (herbicide and antidote) the containers with the covered seedbed were treated with an initial overhead irrigation equivalent to 0.6 cm rainfall, then subsequently sub-irrigated as required on greenhouse benches.
(§4) In the series of greenhouse tests described below, for routine screening purposes the herbicide/antidote compositions were tested in crop/weed combinations involving corn as the crop and either or both of the weeds barnyardgrass (Echinochloa crusgalli), a monocotyledonous weed, and velvetleaf (Abutilon theophrasti), a dicotyledonous weed. In the tables below, these weeds are indicated by the symbols "BYG" and "VL", respectively.
(§5) In this example the safening effect on a composition comprising Herbicide No. 1 and another leading rice herbicide, i.e., Herbicide No. 13, was investigated using the same antidotes and test procedure described in the preceding example. Herbicide No. 13 is pretilachlor, active ingredient used in the commercial rice herbicides RIFIT®, SOFIT® and SOFIT® SUPER.

[2] = tested on: velvetleaf (Abutilon theophrasti); experiment: as above; type: in vivo
Description: as §1, §2, §3, §4, §5

corn [3] = experiment: Example 25, greenhouse preemergence test: Antidote Nos. 1 and 2 against Herbicide Nos. 1-3; type: in vivo, Corn (Pioneer 3424 variety); conditions: Preemergence
Description: The chemicals were tested in both preemergence and post-emergence modes of application. The herbicides were prepared and applied as wettable powders; dichlormid was applied as an emulsifiable concentrate, while the naphthalic anhydride was applied as a coating on the corn seed prior to planting.
Test data from the preemergence tests are shown in Table 25A and from the post-emergence tests in Table 25B. In the tables, the concentration of chemicals is shown in terms of active ingredient in grams per hectare (G/ha); concentrations of the naphthalic anhydride were not measured per se, but were present as in conventional, normally-coated applications. Corn injury is shown in terms of percent inhibition of growth.

corn [4] = experiment: Example 2, Procedure II: dichloroacetamide antidotes against Herbicide No. 1; type: in vivo; conditions: Herbicide No. 1, Table 2
Description: as §1, §2, §3
In this example, a plurality of dichloroacetamide antidotes were tested for their safening efficacy against Herbicide No. 1 in corn, using Procedure II. In this test the weed was velvetleaf; barnyardgrass was not present in this test.

corn [5] = experiment: Example 4, Procedure I: Antidote Nos. 15 and 16 against Herbicide No. 1; type: in vivo
Description: as §1, §2
This example describes tests with Antidote Nos. 15 and 16 to safen Herbicide No. 1 according to Procedure I using corn and the weeds barnyardgrass and velvetleaf as the test plants.

corn [6] = experiment: Example 10, Procedure II: Herbicide No. 1 + propachlor (No. 5) with antidotes; type: in vivo; conditions: Herbicide Nos. 1 and 5, Table 10
Description: as §1, §2, §3
In this test, the safening effect of various antidotes on the herbicidal combination of Herbicide No. 1 and another α-chloroacetanilide co-herbicide, propachlor, (Herbicide No. 5) was investigated. Propachlor is the active ingredient in the commercial herbicide RAMROD®. Procedure II was also used in this test as in the preceding example.

corn [7] = experiment: Example 13, Procedure II: Herbicide No. 1 + acetochlor (No. 6) with dichloroacetamide antidotes; type: in vivo; conditions: Herbicide Nos. 1 and 6, Table 13
Description: as §1, §2, §3
In this example a plurality of dichloroacetamide antidotes were tested for their safening efficacy against a herbicidal composition comprising Herbicide No. 1 and a co-herbicide, acetochlor (Herbicide No. 6) in corn in the presence of velvetleaf. The procedure used in this example was Procedure II above.

[8] = Herbicide No.1 0.14 kg/ha + Herbicide No.13 2.24 kg/ha, antidote rate 2.24 kg/ha
[9] = Herbicide No.1 0.14 kg/ha + Herbicide No.13 2.24 kg/ha, antidote rate 8.96 kg/ha
[10] = Herbicide No.1 0.56 kg/ha + Herbicide No.13 2.24 kg/ha, antidote rate 2.24 kg/ha
[11] = Herbicide No.1 0.56 kg/ha + Herbicide No.13 2.24 kg/ha, antidote rate 8.96 kg/ha

SMILES	% Injury BYG [1, 8]	% Injury BYG [1, 9]	% Injury BYG [1, 10]	% Injury BYG [1, 11]	% Injury VL [2, 8]	% Injury VL [2, 9]	% Injury VL [2, 10]	% Injury VL [2, 11]	further results
O=C1OC(=O)c2cccc3cccc1c23 [compound 2]	100%	100%	100%	100%	80%	75%	85%	80%	% Inhibition Corn (corn [3]; Herbicide No. 1 0.25 G/ha + antidote as seed treatment (concentration not measured)): 18.2%; % Inhibition Corn (corn [3]; Herbicide No. 1 0.74 G/ha + antidote as seed treatment (concentration not measured)): 31.2%; % Inhibition Corn (corn [3]; Herbicide No. 2 0.25 G/ha + antidote as seed treatment (concentration not measured)): 31.5%; % Inhibition Corn (corn [3]; Herbicide No. 2 0.74 G/ha + antidote as seed treatment (concentration not measured)): 18.9%; % Inhibition Corn (corn [3]; Herbicide No. 2 2.5 G/ha + antidote as seed treatment (concentration not measured)): 31.9%; % Inhibition Corn (corn [3]; Herbicide No. 3 0.07 G/ha + antidote as seed treatment (concentration not measured)): 13.2%; % Inhibition Corn (corn [3]; Herbicide No. 3 0.25 G/ha + antidote as seed treatment (concentration not measured)): 29.3%; % Inhibition Corn (corn [3]; Herbicide No. 3 0.74 G/ha + antidote as seed treatment (concentration not measured)): 46.9%; % Inhibition Corn (corn [3]; antidote alone as seed treatment (concentration not measured), no herbicide): 17.4%
CC1(C)OC(c2ccco2)CN1C(=O)C(Cl)Cl (stereo not shown) [Antidote No. 15, Oxazolidine, 3-(dichloroacetyl)-5-(2-furanyl)-2,2-dimethyl]	–	–	–	–	–	–	–	–	safening of corn, assessment in words (corn [4]): most safening and commercial-level protection for corn, at all ratios tested; % Injury Corn (corn [5]; Herb. No. 1 4.48 kg/ha + antidote 0.56 kg/ha): 10%; % Injury Corn (corn [5]; Herb. No. 1 4.48 kg/ha + antidote 2.24 kg/ha): 13%; safening of corn, assessment in words (corn [5]; Herbicide No. 1, Table 4): substantial safening of Herbicide No. 1; safening of corn, assessment in words (corn [6]): best safening effect; safening of corn, assessment in words (corn [7]): most active overall
O=C(C(Cl)Cl)N1CCOC12CCCCC2 [compound 7]	100%	100%	100%	100%	80%	75%	85%	85%	–
